Measurements from PMC6694155, “PTPσ inhibitors promote hematopoietic stem cell regeneration” (Nature Communications, 2019).
“And” between values parts separate entries of the source, which are not always exact repeats. Equal values may be shown once.

Experiments:
[1] = system: C57BL/6 mice; experiment: Hematopoietic regeneration at day +10 after 750 cGy TBI (PB counts, BM KSL and progenitor cells, CFCs); type: in vivo, mouse; design: Supplementary Figure 4c: BFU-E / Supplementary Figure 5e: CFU-GM / Supplementary Figure 5e: BFU-E / Supplementary Figure 5e: CFU-GEMM: unit not given here
Experimental: Femurs and tibiae were collected from killed C57BL/6 or Ptprs^−/− mice and flushed with IMDM containing 10% FBS and 1% penicillin–streptomycin for BM cells. PB was collected through sub-mandibular puncture. Cells were filtered through a 40 μM strainer and then treated with ACK lysis buffer (Sigma Aldrich) before antibody staining for flow cytometry. For KSL and CD150^+CD48^−KSL cell analysis, BM cells were stained with allophycocyanin (APC)-and Cy7-conjugated anti-mouse Sca1 (BD Biosciences, #560654, 1:100), phycoerythrin (PE)-conjugated anti-mouse c-kit (BD Biosciences, #553355, 1:100), V450 lineage cocktail (BD Biosciences, 561301, 1:10), Alexa Fluor 488-conjugated anti-mouse CD48 (BioLegend, #103414, 1:100), and Alexa Fluor 647-conjugated anti-mouse CD150 (Biolegend, #115918, 1:100) antibodies. For MEP, CMP, GMP, and CLP cell analysis, BM cells were stained with APC-Cy7-conjugated anti-mouse Sca1 (BD Biosciences, #560654, 1:100), PE-conjugated anti-mouse ckit (BD Biosciences, #553355, 1:100), V450 lineage cocktail (BD Biosciences, #561301; 1:10), Alexa Fluor 488-conjugated anti-mouse CD127 (BD Biosciences, #561533, 1:100), Alexa Fluor 647-conjugated anti-mouse CD34 (BD Biosciences, #560230; 1:100), and BV605-conjugated anti-mouse CD16/32 antibodies (BD Biosciences, #563006; 1:100). For donor engraftment analysis in transplanted mice, PB or BM cells were stained with BV605-conjugated anti-mouse CD45.2 (BioLegend, #109841, 1:100), fluorescein isothiocyanate (FITC)-conjugated anti-mouse CD45.1 (BD Biosciences, #553775, 1:100), PE-conjugated anti-mouse Mac-1 (BD Biosciences, #557397, 1:100) and anti-mouse Gr1 (BD Biosciences, #553128, 1:100), V450-conjugated anti-mouse CD3 (BD Biosciences, #561389, 1:100), and APC-Cy7-conjugated anti-mouse B220 (BD Biosciences, 552094, 1:100) antibodies.
For survival studies, 10-week-old female C57BL/6 mice were irradiated with 750 cGy TBI, which is lethal for ~50% of C57BL/6 mice by day + 30 (LD50/30), using a Shepherd Cesium-137 irradiator. Twenty four hours post irradiation, mice were administered daily subcutaneous injections of 5 mg/kg DJ001 or DJ009, or vehicle in a volume of 100 μL for 10 days. DJ001 or DJ009 injections were prepared in PBS, 0.5% Tween 80, and 10% DMSO. Corresponding vehicle injections contained PBS, 10% DMSO, and 0.5% Tween 80. PB complete blood counts were measured using a Hemavet 950 instrument (Drew Scientific) at day + 10 post irradiation. For hematopoietic analysis, BM cells were collected at day + 10 post irradiation. To study whether DJ001 increased survival rates through activation of RAC signaling, the RAC inhibitor, EHT1864 (Selleckchem), was dissolved in PBS and administered intraperitoneally, 40 mg/kg every other day, to 750 cGy-irradiated mice until day + 10.
CFC assays (colony-forming unit-granulocyte monocyte), burst-forming unit-erythroid, and CFU-GEMM were performed using MethoCult GF M3434 (Stemcell Technologies)[6]. For all in vitro assays, BM CD34^−KSL cells, KSL cells, and Lin^− cells were cultured in TSF media (IMDM, 10% FBS, 1% pen-strep, 20 ng/mL recombinant mouse TPO, 125 ng/mL recombinant mouse SCF, 50 ng/mL recombinant mouse Flt3 ligand). Recombinant mouse SCF, Flt3 ligand, and TPO were purchased from R&D Systems. For competitive repopulation assays, BM cells were isolated from donor 10–12-week-old female CD45.2^+ mice. Recipient 10-week-old female CD45.1^+ B6.SJL mice were irradiated with 950 cGy TBI using a Cs137 irradiator and donor BM cells were administered via tail vein injection along with a competing dose of 1 × 10^5 non-irradiated host BM cells. Multilineage donor hematopoietic cell engraftment was measured in the PB by flow cytometry.

[2] = system: RAC1-GTP in BM KSL cells; experiment: RAC1-GTP intracellular flow cytometry of BM KSL cells; type: cell-based, mouse; design: Figure 3c: RAC1-GTP in BM KSL cells: unit not given here; conditions: for Figure 3c: RAC1-GTP in BM KSL cells: individual replicates
Experimental: (§1) Intracellular flow cytometric analysis was performed on irradiated (300 cGy) or non-irradiated, sorted KSL cells after treatment with 1 μg/mL DJ001 or control (equal volumes of DMSO) for 24 h. At 24 h after irradiation, cells were fixed with 4% PFA for 10 min, followed by permeabilization using 0.25% saponin in PBS. Cells were washed again and stained with antibody at the recommended concentrations for 30 min at RT. Intracellular antibodies and phospho-flow antibodies used were as follows: FITC-conjugated anti-BCL-XL (Abcam, #26148, 1:100), active RAC1-GTP antibody (NewEast Biosciences, #26903, 1:100) and anti-PAK1 (phospho S144) + PAK2 (phospho S141) + PAK3 (phospho S154) antibody (Abcam, #40795, 1:100), and FITC-conjugated goat anti-rabbit IgG H&L (Abcam, #97050, 1:200).

[3] = system: p-PAK1 in BM KSL cells; experiment: p-PAK1 phospho-flow cytometry of BM KSL cells; type: cell-based, mouse
Experimental: as §1

[4] = system: BM KSL cells; experiment: Cell cycle analysis (Ki67/7AAD) of BM KSL cells; type: cell-based, mouse; conditions: non-irradiated BM KSL cells, 36 hours
[5] = day +10 after 750 cGy TBI, individual mice
[6] = day +10 after 750 cGy TBI, replicates
[7] = day +10 after 750 cGy, 5 mg/kg s.c. daily
[8] = day +10 after 750 cGy, 5 mg/kg s.c. daily, 5 mg/kg
[9] = after 750 cGy TBI, individual mice

SMILES: O=C(/C=C\Nc1cccc([N+](=O)[O-])c1)c1ccccc1 [DJ001, (Z)-3-((3-nitrophenyl)amino)-1-phenylprop-2-en-1-one]
- recovery of BM KSL cells, ckit+sca-1−lin− myeloid progenitors and CFCs following TBI ([1]; 750 cGy, 5 mg/kg s.c. daily day +1 to +10): accelerated the recovery
- percentages of BM MEPs, CMPs, GMPs, or PB myeloid, B-cell or T-cell populations ([1]; day +10 after 750 cGy): did not alter the percentages
- percentages of BM common lymphoid progenitors (CLPs) ([1]; day +10 after 750 cGy): modest increase
- Supplementary Figure 4d (center left panel): BM progenitor cells [1, 5]: 0.05534 and 0.6345 and 0.3797 and 0.1366 and 0.1346 and 0.08271 and 0.1205 and 0.1142 and 0.1459 and 0.6791
- Supplementary Figure 4d (center right panel): BM progenitor cells [1, 5]: 0.1315 and 0.5274 and 0.7758 and 0.2631 and 0.4325 and 0.1366 and 0.1603 and 0.4187 and 0.3345 and 1.367
- Supplementary Figure 4d (left panel): BM progenitor cells [1, 5]: 0.1083 and 0.8819 and 0.5478 and 0.2535 and 0.1578 (2×) and 0.2622 and 0.4013 and 0.1995 and 0.6663
- Supplementary Figure 4d (right panel): BM progenitor cells [1, 5]: 0.07453 and 0.07514 and 0.1093 and 0.1068 and 0.06267 and 0.05116 and 0.04956 and 0.2046 and 0.1087
- Supplementary Figure 4c: BFU-E [1, 6]: 0 (2×) and 2 and 1 (3×)
- Supplementary Figure 4c: CFU-GEMM [1, 6]: 0 and 2 and 1 (2×) and 3 (2×)
- Supplementary Figure 4c: CFU-GM [1, 6]: 5 (3×) and 7 and 6 and 10
- PB lymphocytes compared with vehicle [1, 7]: more than twofold increased
- PB neutrophils compared with vehicle [1, 7]: more than twofold increased
- PB white blood cells compared with vehicle [1, 7]: more than twofold increased
- PB WBCs per mouse (Figure 2c left panel) [1, 8]: 0.86 and 0.62 and 0.68 and 0.76 and 0.34 and 0.7 and 0.52 and 0.64
- PB lymphocytes (LYMPH) per mouse (Figure 2c right panel) [1, 8]: 0.38 and 0.39 and 0.4 and 0.45 and 0.24 and 0.36 and 0.33 and 0.42 and 0.37
- PB neutrophils (NEU) per mouse (Figure 2c center panel) [1, 8]: 0.27 and 0.16 and 0.18 and 0.17 and 0.06 and 0.2 and 0.12
- numbers of BM KSL cells per mouse (Figure 2e center left panel) ([1]; day +10 post 750 cGy): 15.7 and 9.66 and 15 and 10.6 and 9.42 and 14.8 and 11.8 and 11.5 and 10.7
- numbers of BM c-kit+sca-1− cells per mouse (Figure 2e right panel) ([1]; day +10 post 750 cGy): 1.33 and 6.87 and 4.4 and 4.05 and 3.27 and 5.18 and 7.29 and 2.89 and 7.28
- percentages of BM KSL cells per mouse (Figure 2e left panel) ([1]; day +10 post 750 cGy): 0.749% and 0.807% and 1.138% and 0.766% and 0.608% and 0.862% and 0.365% and 1.197% and 0.783%
- percentages of BM c-kit+sca-1− cells per mouse (Figure 2e center right panel) ([1]; day +10 post 750 cGy): 1.717% and 4.73% and 3.337% and 2.916% and 2.11% and 3.013% and 2.25% and 3.004% and 5.312%
- increase of percentages and numbers of BM KSL stem/progenitor cells compared to irradiated control mice ([1]; irradiated mice, day +10): 2 fold
- RAC1-GTP levels ([2]; BM KSL cells from Ptprs+/+ mice): rapid increase in RAC1-GTP levels
- RAC1-GTP levels ([2]; BM KSL cells from Ptprs−/− mice): no change in RAC1-GTP levels
- Figure 3c: RAC1-GTP in BM KSL cells ([2]; Ptprs+/+ cells): 42 and 37.6 and 37.8 and 37.4 and 37.3
- Figure 3c: RAC1-GTP in BM KSL cells ([2]; Ptprs-/- cells): 84.6 and 83.8 and 81.9 and 85.5 and 85.6
- phosphorylation of PAK1 ([3]; BM KSL cells, 1 μg/mL DJ001): increased phosphorylation
- Figure 3d: p-PAK1 in BM KSL cells ([3]; individual replicates): 50.24 and 54.07 and 49.55 and 58.02 and 54.95
- cell cycle status [4]: did not alter the cell cycle status

SMILES: O=C(/C=C\Nc1cc(F)cc(F)c1)c1ccccc1 [DJ009, (Z)-3-((3,5-difluorophenyl)amino)-1-phenylprop-2-en-1-one]
- PB WBCs, neutrophils and lymphocytes, BM KSL cells, and CFCs ([1]; 750 cGy TBI, 5 mg/kg DJ009 daily for 10 days): significant increase
- Supplementary Figure 5c (center panel): PB counts [1, 9]: 0.08 and 0.19 and 0.29 and 0.1 and 0.39 and 0.13 and 0.2
- Supplementary Figure 5c (left panel): PB counts [1, 9]: 1.4 and 0.72 and 1.76 and 0.4 and 1.62 and 0.52 and 0.94
- Supplementary Figure 5c (right panel): PB counts [1, 9]: 1.27 and 0.4 and 1.32 and 0.26 and 0.96 and 0.29 and 0.63
- Supplementary Figure 5d (center panel): BM cells [1, 9]: 4.83 and 5.26 and 6.06 and 14.68 and 8.28 and 9.38 and 7.6
- Supplementary Figure 5d (left panel): BM cells [1, 9]: 1.079 and 0.621 and 0.841 and 0.709 and 1.581 and 1.301 and 0.94
- Supplementary Figure 5e: BFU-E ([1]; after 750 cGy TBI, replicates): 0 (6×) and 1 (2×) and 2
- Supplementary Figure 5e: CFU-GEMM ([1]; after 750 cGy TBI, replicates): 1 and 0 (3×) and 3 and 2 (3×) and 4
- Supplementary Figure 5e: CFU-GM ([1]; after 750 cGy TBI, replicates): 5 and 4 and 2 and 6 and 8 and 7 and 19 and 18 and 15
